Assays:
Type in all cases: cell-based, human
[1] = test system: senescent IMR-90 fibroblasts; test: Crystal violet staining cell viability, senescent cells; conditions: 48 hours
Procedure: (§1) Human IMR-90 fibroblasts (ATCC, USA) were treated with 300 nM of doxorubicin hydrochloride (Millipore Sigma, USA; Cat #504042) in DMEM complete media for 24 hours or ionizing radiation (10 Gy X-ray) and maintained in culture. Primary human endothelial cells were treated with 250 nM of doxorubicin in promo cell basal medium supplemented with Growth Medium MV 2 Supplement Pack for 24 hours and maintained in culture. Senescent cells were used 7-13 days following treatment.
(§2) Cell viability after 48 h of apilimod (1 μM) or vacuolin-1 (1 μM) treatment was estimated by crystal violet. Cells in 6-well cell culture plates (Greiner Bio-One; Cat #657160) were washed twice with PBS, incubated with 4% paraformaldehyde for 15 minutes at room temperature, then stained with 0.25% crystal violet for 10 minutes. Cells were washed with deionized water and imaged, 3 images per well.
(§3) Apilimod is a clinical PIKfyve inhibitor. Apilimod was used to further validate the senolytic effects of PIKfyve inhibitors. […] To further characterize the potent cytotoxic effect of apilimod on non-senescent versus senescent cells, IMR-90 fibroblasts were treated with 1 μM of apilimod. […] Of note, the decrease in viable apilimod-treated non-senescent cells after 48 hours of treatment is likely in part due to a decrease in proliferation rather than viability of apilimod-treated cells.

senescent IMR-90 cells = test: xCELLigence RTCA impedance viability assay, senescent cells
Procedure: as §1
For measurement of background values, 50 μl of complete medium was added to E-Plates 96 (Agilent). Cells were seeded in a total of 200 μl of medium per well at a density of 10,000 cells per well. Cell attachment was monitored using the RTCA MP (Agilent) instrument and the RTCA software (Agilent). Media was replaced with media containing either DMSO, vacuolin-1 or apilimod. Cells treated with 0.2% Triton X-100 was used as a 100% dead cell positive control for cytotoxicity assays. After drug addition, impedance measurements were recorded every 15 minutes. All experiments were performed in at least 5 replicates for each dose. Changes in impedance were expressed as a cell index (CI) value, which derives from relative impedance changes corresponding to cellular coverage of the electrode sensors, normalized to baseline impedance values with medium only. To analyze the acquired data, CI values were exported, and percentage of attached cell surface was calculated in relation to positive controls and DMSO-treated cells.
Senescent cells are known to employ several mechanisms to increase their survival. For example, increased expression of the pro-survival BCL-family proteins has been widely studied. In fact, BCL antagonism has been the basis of many senolytic drugs (see, e.g., Zhu, et al., Aging Cell. 2016 June; 15(3):428-35). Vacuolin-1 was used to determine if lysosomal exocytosis is a mechanism for senescent cell survival. Vacuolin-1 is a potent inhibitor of Phosphatidylinositol-3-phosphate 5-kinase type III (PIKfyve), which is a key player in lysosomal exocytosis allowing lysosomes to fuse with the plasma membrane. The viability assay was performed in senescent IMR-90 cells using xCELLigence Real-Time Cell Analysis (RTCA) system that uses label-free cellular impedance to monitor cell health and viability over time.

[2] = Crystal violet staining cell viability, non-senescent cells; conditions: human, non-senescent IMR-90 fibroblasts, non-senescent cells, read-out: cell viability, quantification of adherent cells
Procedure: as §2, §3

[3] = test system: non-senescent IMR-90 fibroblasts; test: as above; conditions: 1 μM, 48 hours
Procedure: as §2, §3

[4] = test system: non-senescent (NS) IMR-90 cells; test: xCELLigence RTCA impedance viability assay, non-senescent cells; conditions: 48 hours of treatment with 1 μM

Structure (SMILES) | viability of senescent cells, light microscopy of crystal violet-stained cells ([1]; 1 μM) | viability at 1 µM ([1]; Homo sapiens, IMR-90, senescent condition, read-out: viable cells, quantification of adherent cells) [%] | senescent cell survival (senescent IMR-90 cells; 48 hours of treatment with 1 μM) | senescent cell survival (senescent IMR-90 cells; 48 hours of treatment with 5 μM) | senescent cell viability (senescent IMR-90 cells; dose response) | viability at 48 h, 1 µM [2] [%] | non-senescent cell viability, light microscopy of crystal violet-stained cells [3] | mean normalized cell index (senescent IMR-90 cells; senescent cells, 48 hours of treatment with 1 μM) | selective killing of senescent cells by blocking lysosomal exocytosis (senescent IMR-90 cells; senescent vs NS IMR-90 cells, dose response) | mean normalized cell index [4]
Cc1cccc(/C=N/Nc2cc(N3CCOCC3)nc(OCCc3ccccn3)n2)c1 [apilimod] | significant decrease | 17 | No senescent cells survived | No senescent cells survived | dose-dependent declines in senescent cell viability | 92 | no effect | – | – | –
Ic1cccc(/C=N/Nc2nc(N3CCOCC3)nc(N(c3ccccc3)c3ccccc3)n2)c1 [vacuolin-1] | – | – | – | – | – | – | – | 0.4 | selectively killed senescent IMR-90 cells in a dose-dependent manner | 1.2

Reference: patent US20250208133A1, “SENESCENT CELL SURFACE MARKERS” (SENS RESEARCH FOUNDATION, priority 2022, published 2025)
